Results as given in patent publication EP0443560A2, “HIV protease inhibitors” (priority 1990, dated 1991).

How the values were obtained:
H9/HTLV-IIIB = test: Inhibition of syncytia formation in HIV-infected C8166 cells (antiviral screen adapted from plaque assay of Harada et al.); format: cell-based; conditions: Human immunodeficiency virus 1, IIIB, 72 h
Description: Typical of such procedures are those described by S. Harada and N. Yamamoto, Jpn. J. Cancer Res. (Gann), 76, 432 (1985), and S. Harada et al., Science, 229, 563 (1985). An assay based on the latter procedures is described in the examples hereinafter.
The following protocol, used for screening antiviral effects of the compounds of formula 1 , is adapted from a plaque assay utilizing HTLV-I transformed cells which was developed by Harada et al., supra. HTLV-I transformed cells are used in these assays because of the rapidity with which HIV will replicate in these cells. • 1. The test compound is dissolved in dimethylsulfoxide to a concentration of 5 mg/mL. The resultant solution can be stored at 4° until used. • 2. The resultant solution is diluted in RPMI 1640 (Gibco Laboratories, St. Lawrence, MA, USA) to four times (4x) the final concentration which is to be tested. Once diluted in RPMI 1640, the solution is used in the cell culture assay within 4 h. • 3. The 4x solution (50µL) is added to triplicate wells of a 96 well flat bottomed microtiter plate. […] Infectious titer of virus stocks are as previously determined by end point dilution on C8166 cells. […] Plates are then removed and centers of syncytia are counted in each well by low power phase contrast light microscopy. […] Percent inhibition of syncytia formation is calculated by the formula: [formula]

HIV protease = target: T1, HIV protease (Human immunodeficiency virus type 1 group M subtype B, UniProt P04585); test: Recombinant HIV Protease HPLC Assay; format: biochemical
T1 construct: HIV protease was expressed in E. coli [construct pBRT1 prt⁺; made in house; host or cells: E. coli
Description: The procedure is based on the capacity of the test compound to inhibit enzymatic cleavage by HIV protease of a decapeptide (the substrate) having an amino acid sequence which includes a known HIV protease cleavage site of a HIV polyprotein; see H.G. Krausslich et al., Proc. Natl. Acad. Sci. USA, 86, 807 (1989). Details of this assay together with the results obtained for exemplified compounds of formula 1 are described in the examples hereinafter.
Recombinant HIV Protease HPLC Assay:
HIV protease was expressed in E. coli [construct pBRT1 prt⁺, see W.G. Farmerie et al., Science, 236, 305 (1987)], according to the following protocol: Unless stated otherwise, all solutions are aqueous solutions.
E. coli cells containing the pBRT1 prt⁺ plasmid were used to inoculate a seed culture media composed of Luria-Bertani Broth containing 100µg/mL of ampicillin. Flasks were incubated at 37° under agitation for 17 h. Production flasks containing sterile M9 broth, supplemented with 100µg/ml of ampicillin, were inoculated at a level of 1% (v/v) using the seed culture described above. Total volume in each production flask was 500 mL in a 2 L Erlenmeyer flask. Flasks were incubated at 37° under agitation until a cell concentration corresponding to an optical density (λ = […]) of 0.6 was reached (no dilution). This time span was routinely 3-4 h. Flasks were then supplemented with 5mM isopropylthiogalactoside (IPTG, Research Organics, Cleveland, Ohio, USA) and incubation was continued until the cell concentration reached an optical density of 0.2 at 16-fold dilution. Flasks were then supplemented with 1mM phenylmethylsulfonyl fluoride (PMSF) and rapidly chilled to 4°. The bacterial cells were recovered by centrifugation at 4°. The wet pellet was stored at -70°.
All steps below were performed at 4° unless otherwise indicated. Thawed cells were mixed with buffer A [50 mM tris(hydroxymethyl)[…] HCl(Tris-HCl, pH 7.4); 0.6 mM ethylenediaminetetraacetic acid (EDTA); 0.375 M NaCl, 0.2% Nonidet P-40 ® (BDH Chemicals Ltd., Poole, UK); 1mM PMSF], at a ratio of one part cells to nine parts buffer A. Diatomaceous earth (Celite 545 ® , John Manville, Lompoc, CA, USA) was added at a ratio of two parts to one part of wet cell weight. The resulting slurry was homogenized at high speed (ca. 20,000 rpm) on a Waring ® industrial blender for 8 x 15 sec. pulses. Cell debris/Celite ® was collected by centrifugation and the resulting pellet was extracted with 4.5 parts of buffer A to one part wet solids using the homogenization procedure described above. Supernatants from both homogenization steps were combined and soluble protein was precipitated by the addition of solid (NH₄)₂SO₄ to yield a final concentration of 75% saturation. This mixture was agitated for 60 min and the precipitate was recovered by centrifugation. The resulting pellet was suspended in buffer B [50mM Tris-HCl, pH 8; 30 mM NaCl; 1 mM DL-dithiothreitol(DTT); 1 mM EDTA; 1 mM PMSF; 10% glycerol], and dialyzed for 18h against the same buffer.
An aliquot of the dialyzed extract containing 150 mg of the protein was loaded onto a Sephadex A25 ® anion exchange column. (Pharmacia, Uppsala, Sweden) with bed dimensions of 70 cm length and 2.5 cm diameter. The sample was eluted isocratically with buffer B at a linear flow rate of 10 cm/h. Fractions containing HIV protease activity (see below for assay description) were combined, and soluble protein was precipitated by the addition of saturated aqueous (NH₄)₂SO₄ to yield a total (NH₄)₂SO₄ concentration of 85% saturation. Precipitated protein was removed by centrifugation and the resulting pellet was dissolved in buffer C [50 mM 2-(4-morpholino)ethanesulfonic acid (MES), pH 5.5; 150 mM NaCl; 1 mM DTT; 1 mM EDTA; 10% glycerol). This preparation was dialyzed for 18h against buffer C, and then frozen at -70°. All crude extracts were purified by chromatography in aliquots containing 150 mg of protein in the same manner as described above. […]

Q: What does the source list for `CC(C)(C)OC(=O)NC(CNC(CC1CC1)C(=O)NC(CCC(=O)O)C(=O)NCCCc1ccccc1)Cc1ccccc1` (stereo not drawn) [Example 2, Boc-PheΨ[CH₂NH]Cpa-Glu-NHCH₂CH₂CH₂Ph]?
A: inhibition at 20 µg/mL (H9/HTLV-IIIB): 54%; IC50 (HIV protease): 13 nM

Q: For `CC(C)(C)OC(=O)NC(CC1CCCCC1)C(O)CC(=O)NC(CCC(=O)O)C(=O)NCCCc1ccccc1` (stereo not shown) [Example 4, Boc-ACHPA-Glu-NHCH₂CH₂CH₂Ph], which inhibition at 20 µg/mL (H9/HTLV-IIIB) is on record?
A: 96%

Q: And the IC50 (HIV protease)?
A: 7 nM
